The text below walks through data of patent US8853222B2, “Treatment of herpes virus related diseases” (priority 2008, dated 2014).

Entries after “also recorded” stand apart in the source; their conditions may differ. Like-named read-outs stand apart in the source and are kept apart here.

For data set [1] the following is noted: cited from earlier work.
The conditions of data set [2]: oral, maximum dose of 800 mg 5 times per day, most patients; cited from earlier work.
The nature of data set [3]: Renal function by creatinine clearance in one patient. Type of data set: in vivo, human. The note with it: from ~29 mL/min before. The text has this:
This treatment is useful, not only in stopping the progression of the diseases, but in returning more of organ function previously lost. Text books claim that organ function lost to these diseases can never be recovered, but this treatment has succeeded in recovering nearly all lost organ function. One of the diseases for which a large return of function appears achievable is progressive loss of renal function by unknown cause, but suspected to be autoimmune disease related. A clinical laboratory measure of kidney function is creatinine clearance. Creatinine is the metabolic product formed from creatine when food is converted to energy. Creatinine is produced at a steady state and is affected very little by diet or normal physical activities. When a subject's kidneys are damaged and/or cannot function normally, the amount of creatinine excreted in the subject's urine decreases while its level in the blood increases. Thus, the blood level of creatinine indicates how well the kidneys are working A higher than normal blood level of creatinine usually means the kidneys are not functioning properly. […] As the measured kidney function improves a parallel process occurs in other affected tissues or organs, with a diminution of the visible inflammation, swelling, pain, grinding and clicks in the afflicted articular joints. […]

Data set [4] can be described thus: Aseptic meningio-encephalitis subject treated with much higher doses. Type of data set: in vivo, human. Particulars: much higher doses than '114. An excerpt:
While the treatment of autoimmune disease using high levels of the anti-herpetic drugs taught in patent '114 provided noticeable improvements in a patient, signs or symptoms lingered even with ongoing treatment. Knowing the warning of the anti-herpetic drug labels that were on the market against using higher doses, increasing the dose even further was definitely contraindicated. However, the inventor was confronted with a problem of a subject presenting with extremely painful migraine type headache, which was diagnosed to be aseptic (not bacterial) meningio-encephalitis. […] The inventor also discovered that by using the much higher doses of famciclovir than previously taught in '114, the need to titrate a subject to tolerance of the drug could be avoided, that is the higher doses were effective at ameliorating the signs or symptoms of the disease without the accompanying pain of starting at a low dose and increasing it to a therapeutically effective level, as experienced with the doses of '114. While not wishing to be bound by a particular theory, it is thought that by regularly administering the higher levels the drug, a subject avoids a fluctuating blood level that can add to the irritation of already irritated nerves by major influxes of drug at a high level after having been at a lower level in the subject. […]

A further data set concerns HSV-II. Put plainly: Suppression of vesicle formation, prodrome and viral shedding in person with ongoing HSV-II infection. Type of data set: in vivo, human. The text has this: The inventor in this application is aware of the prior art teaching of U.S. Pat. No. 5,559,114 (“'114”) and International Application No. PCT/US95/16207 (“16207”) that describe the treatment of certain autoimmune diseases using higher than FDA-approved amounts of certain 2-amino purine derivatives. According to the teachings of the '114 patent and the 16207 application, one compound useful was acyclovir (or its precursor valacyclovir) at a level of 20 to 50 g per day for a 100 kg subject (or 5-10 g of valacyclovir). Another compound was famciclovir (the precursor of penciclovir) at about 4-10 g per day for a 100 kg subject ([…]). In following the treatment regime so taught for a subject having HSV-II infection and with the drug used to suppress autoimmune disease signs or symptoms, the inventor of the present invention observed that although the signs or symptoms of the subject's autoimmune disease improved, the subject continued to experience discomfort even if the high dose regimen of famciclovir described in the '114 patent was followed for a number of years. In addition, the subject continued to have prodrome episodes, vesicle outbreaks, and viral shedding. The prodrome is the sensation of tingling, pain or both in an area where the herpetic vesicles will appear within 24 to 48 hours. This is a very reliable signal that vesicles will appear on schedule. Vesicles are blisters or ulcers that appear on the skin or various mucous membranes as a result of the virus's replication process destroying cells that it has invaded. Viral shedding means that the virus is active on the skin, even though there is no prodrome or vesicle formation, and can be transmitted to another subject through skin contact, kissing, sexual intercourse, or oral sex.
This inventor interprets this to mean that viral shedding has been reduced dramatically, at least 90%. It is probably that viral shedding has been stopped completely. […]

For data set [5] the following is noted: cited from earlier work. This is another data set of the same source.

With `Nc1nc2c(ncn2COCCO)c(=O)[nH]1` [acyclovir, 2-amino-1,9-dihydro-9-[(2-hydroxyethoxy)methyl]-6H-purin-6-one], the “effect on pain, muscle spasms, joint tenderness and butterfly rash” value in data set [1] (lupus patient, between 40 and 50 g per day) is “controlled pain, muscle spasms, joint tenderness and the butterfly rash”. Besides, the blood level result in data set [2] is “about 1.61 μg/mL”.
With `CC(=O)OCC(CCn1cnc2cnc(N)nc21)COC(C)=O` [famciclovir, 2-[2-(2-amino-9H-purin-9-yl)ethyl]-1,3-propanediol diacetate], the creatinine clearance in data set [3] (doses of '114, same patient) is on record as approximately 89 mL/min; in data set [3] (very high doses, one patient), “more than 140 mL/min”. In data set [4], the “signs or symptoms of the encephalitis” value was “alleviated”. In addition, in the data set on HSV-II (300 mg/kg/day, inventor's interpretation from suppressed sensations), the viral shedding reduced result was “at least 90%”. For the same compound, the “prodrome and vesicle outbreak” value with HSV-II (10-12 g per day ('114 dose level)) is “continued to experience prodrome and vesicle outbreak”. For the same compound, in the data set with HSV-II (ongoing dosage of 300 mg/kg/day, 300 mg/kg/day), the vesicle formation result is reported as “no new vesicles form; also recorded: total suppression”. The oral bioavailability in data set [5] (in vivo, po) is reported as 77±8%. For the same compound, the “effect on pain, muscle spasms, joint tenderness and butterfly rash” value in data set [1] (10-12 g per day) was “same effect”.
Take `CC(C)[C@H](N)C(=O)OCCOCn1cnc2c(=O)[nH]c(N)nc21` [valacyclovir, L-valine, 2-[(2-amino-1,6-dihydro-6-oxo-9H-purin-9-yl)methoxy]ethyl ester]: in data set [5] (oral), the oral bioavailability is listed as 55±9%.
